# How the values were obtained:
# [1] = test system: K-562 (leukemia cell line); assay: NCI-60 single-dose assay; type: cell-based; details: Homo sapiens, K562, read-out: growth inhibition (GI%) and cytotoxicity (negative values)
# Method in brief: (§1)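 NCI-60 one-dose format: each compound is tested at a single dose against human tumour lines for cytotoxic effect.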
# NCI-60 cell line panel = assay: NCI-60 single-dose assay, whole panel; type: cell-based, human; details: summary over the panel
# Method in brief: as §1
# in vitro = details: African green monkey
# [2] = Cytotoxicity on uninfected Huh-7 cells (WST-8, crystal violet); details: human, uninfected Huh-7 cells
# [3] = test system: SW-620 (colon cancer cell line); assay: NCI-60 single-dose assay; type: cell-based, human; details: human
# Method in brief: as §1
# M14 (melanoma cell line) = assay: NCI-60 single-dose assay; type: cell-based, human; details: human
# Method in brief: as §1
# [4] = test system: MOLT-4 (leukemia cell line); assay: NCI-60 single-dose assay; type: cell-based, human; details: Homo sapiens, MOLT-4, read-out: growth inhibition (GI%) and cytotoxicity (negative values)
# Method in brief: as §1
# [5] = test system: UACC-62 (melanoma cell line); assay: NCI-60 single-dose assay; type: cell-based, human; details: human
# Method in brief: as §1
# [6] = test system: LOX IMVI (melanoma cell line); assay: NCI-60 single-dose assay; type: cell-based, human; details: human
# Method in brief: as §1
# [7] = test system: SK-MEL-28 (melanoma cell line); assay: NCI-60 single-dose assay; type: cell-based, human; details: human
# Method in brief: as §1
# [8] = test system: SK-MEL-5 (melanoma cell line); assay: NCI-60 single-dose assay; type: cell-based, human; details: human
# Method in brief: as §1
# [9] = test system: HCC-2998 (colon cancer cell line); assay: NCI-60 single-dose assay; type: cell-based, human; details: human
# Method in brief: as §1
# [10] = test system: KM12 (colon cancer cell line); assay: NCI-60 single-dose assay; type: cell-based, human; details: Homo sapiens, KM12, read-out: growth inhibition (GI%) and cytotoxicity (negative values)
# Method in brief: as §1
# [11] = test system: CCRF-CEM (leukemia cell line); assay: NCI-60 single-dose assay; type: cell-based, human; details: Homo sapiens, read-out: growth inhibition (GI%) and cytotoxicity (negative values)
# Method in brief: as §1
# [12] = test system: HCT-116 (colon cancer cell line); assay: NCI-60 single-dose assay; type: cell-based, human; details: human
# Method in brief: as §1
# [13] = test system: UACC-257 (melanoma cell line); assay: NCI-60 single-dose assay; type: cell-based, human; details: human
# Method in brief: as §1
# [14] = test system: HL-60(TB) (leukemia cell line); assay: NCI-60 single-dose assay; type: cell-based, human; details: human
# [15] = test system: MDA-MB-468 (breast cancer cell line); assay: NCI-60 single-dose assay; type: cell-based, human; details: human
# Method in brief: as §1
# [16] = test system: RXF 393 (renal cancer cell line); assay: NCI-60 single-dose assay; type: cell-based, human; details: Homo sapiens, RXF 393, read-out: growth inhibition (GI%) and cytotoxicity (negative values)
# Method in brief: as §1
# [17] = test system: BT-549 (breast cancer cell line); assay: NCI-60 single-dose assay; type: cell-based, human; details: Homo sapiens, BT-549, read-out: growth inhibition (GI%) and cytotoxicity (negative values)
# Method in brief: as §1
# [18] = test system: NCI-H460 (non-small cell lung cancer cell line); assay: NCI-60 single-dose assay; type: cell-based, human; details: human
# Method in brief: as §1
# [19] = test system: EKVX (non-small cell lung cancer cell line); assay: NCI-60 single-dose assay; type: cell-based, human; details: Homo sapiens, read-out: growth inhibition (GI%) and cytotoxicity (negative values)
# Method in brief: as §1
# [20] = test system: 786-0 (renal cancer cell line); assay: NCI-60 single-dose assay; type: cell-based, human; details: human
# Method in brief: as §1
# [21] = test system: SARS-CoV-2 VR PV10734 (strain Milano); assay: microbe, parasite or virus in culture; type: cell-based; details: Severe acute respiratory syndrome coronavirus 2; preliminary screening (50, 5, 0.5 μM), Vero TMPRSS; read-out: SARS‐CoV‐2/Vero TMPRSS EC50
# [22] = test system: ZIKV, strain Brazil/2016/INMI1; assay: ZIKV viral yield reduction assay on Huh-7 cells; type: cell-based, Zika virus; details: Zika virus; preliminary screening (50, 5, 0.5 μM), Huh-7; read-out: ZIKV/Huh‐7 EC50
# Method in brief: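 Huh-7 cells infected with ZIKV at MOI 1 for 2 h at 37 °C, compounds added right after infection in duplicate at 50, 5 and 0.5 μM. Supernatants taken at 48 h and titrated by plaque assay on VERO E6 under carboxymethyl cellulose with crystal violet staining. % inhibition from PFU/mL versus DMSO-treated control; SI = CC50/EC50.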
smiles,measurement,setting,value
"CCN1CCC[C@H]1CNC(=O)c1[nH]c2c(c1Cl)CCCc1ccccc1-2 [Compound 1, (S)-3-Chloro-N-(1-ethyl-2-pyrrolidinylmethyl)-5,6-dihydro-4H-benzo[6,7]cyclohepta[1,2-b]pyrrol-2-carboxamide]",inhibition at 10 µM,[1],94%
same,growth inhibition (GI%) reached against cancer cell lines of the NCI-60 panel,NCI-60 cell line panel,> 90%
same,CC50 at 24 h,in vitro,14.7 µM
same,CC50 at 48 h,[2],3.88 µM
same,growth inhibition (GI%) and cytotoxicity (negative values),[3],−30.78%
same,growth inhibition (GI%) and cytotoxicity (negative values),M14 (melanoma cell line),−68.50%
same,inhibition at 10 µM,[4],96.2%
same,growth inhibition (GI%) and cytotoxicity (negative values),[5],−73.43%
same,growth inhibition (GI%) and cytotoxicity (negative values),[6],−25.00%
same,growth inhibition (GI%) and cytotoxicity (negative values),[7],−85.77%
same,growth inhibition (GI%) and cytotoxicity (negative values),[8],−88.03%
same,growth inhibition (GI%) and cytotoxicity (negative values),[9],−21.01%
same,inhibition at 10 µM,[10],83.8%
same,inhibition at 10 µM,[11],75.5%
same,growth inhibition (GI%) and cytotoxicity (negative values),[12],−25.27%
same,growth inhibition (GI%) and cytotoxicity (negative values),[13],−55.18%
same,growth inhibition (GI%) and cytotoxicity (negative values),[14],−38.55%
same,growth inhibition (GI%) and cytotoxicity (negative values),[15],−3.75%
same,inhibition at 10 µM,[16],79.7%
same,inhibition at 10 µM,[17],62.9%
same,growth inhibition (GI%) and cytotoxicity (negative values),[18],−54.58%
same,inhibition at 10 µM,[19],68.8%
same,growth inhibition (GI%) and cytotoxicity (negative values),[20],−22.61%
same,EC50,[21],9.61 µM
same,EC50,[22],2070 nM
